In patent US20240262727A1, “METHOD FOR IMPROVING BIOLOGICAL NITROGEN REMOVAL EFFECT OF LOW-TEMPERATURE SEWAGE” (Sichuan University, priority 2023, published 2024):

Tests used:
[1] = test system: microbial community of the activated sludge; assay: High-throughput sequencing / metagenomics of SBR activated sludge (microbial community and functional genes); details: for relative content of Nakamurella (nitrifying bacteria): 17.46% without
Description: After the treatment effect was stable, high-throughput sequencing was conducted on the activated sludge to analyze a composition of the microbial community. […] The increased abundance of functional bacteria and functional genes in the activated sludge SBR reactor improved the nitrogen removal effect of this reactor.

[2] = test system: activated sludge and biofilm phases; assay: EPS and ATP of the activated sludge and biofilm phases of the MBBR
Description: The EPS concentration in the sludge phase was 46.12±4.8 mg/g·VSS, and the intracellular ATP was 1273.11±5.4 ngATP/mL; the EPS concentration in the biofilm phase was 53.34±3.7 mg/g. VSS, and the microbial activity concentration of a single filler was 20.67±0.22 ngATP/piece.

[3] = test system: activated sludge; assay: Activated sludge SBR reactor, biological nitrogen removal with added AHLs signal molecule
Description: A system to be treated was cooled to 10° C., and an activated sludge SBR reactor was adopted with an effective volume of 1 L and an MLSS of 4,000 mg/L.
Incoming influent: COD: 250 mg/L, ammonia-nitrogen concentration (NH4^+—N): 30 mg/L, TP: 1.5 mg/L, pH=7-8.
12 h was an operation cycle, including 2.5 h of anoxic phase, 8 h of aerobic phase, and 1.5 h of standing. The anoxic phase had dissolved oxygen (DO) maintained below 0.5 mg/L, and the aerobic phase had DO>2.5 mg/L.
An N-butanoyl-homoserine lactone stock solution with a concentration of 10 mg/L, which was added every 2 operation cycles following the influent.
This example differed from Example 1 in that the treatment system was cooled to 7° C., and after the operation was stable, the water temperature was further lowered to 4° C.

[4] = test system: activated sludge-biofilm composite system; assay: Activated sludge-biofilm composite MBBR reactor at 6° C., pollutant removal efficiency
Description: (2) The hydraulic retention time was 20 h, and an effluent from the reactor was collected to detect the pollutant removal efficiency. After a short period of adaptation, the COD concentration in the reactor effluent dropped below 50 mg/L, and the removal efficiency was always maintained at 85%. After adding the C4-HSL, the nitrogen removal effect gradually became more prominent. On the 16th day, the effluent ammonia-nitrogen concentration dropped below 8 mg/L (a maximum allowable emission concentration of ammonia-nitrogen from most urban sewage treatment plants at a water temperature of below 12° C.) to 6.77 mg/L, and the removal efficiency was 71.86%. On the 51st day, the ammonia-nitrogen concentration in the effluent dropped to almost 0, and the removal efficiency was greater than 99%.
There were three stages: increasing COD from 160 mg/L to 500 mg/L (260, 400, 500 mg/L); increasing ammonia-nitrogen concentration from 25 mg/L to 75 mg/L (40, 65, 75 mg/L); increasing TP from 2 mg/L to 8.5 mg/L (4, 6, 8.5 mg/L).
(§1) The C4-HSL with a concentration of 100 μg/L was added to the influent. The rest steps were the same as those in Example 5.

[5] = test system: biofilm on the filler; assay: Single biofilm MBBR at low temperature (sludge discharged on 18th day), pollutant removal and community structure
Description: as §1
The hydraulic retention time was 18 h, the rest steps were the same as those Example 1, and the COD removal efficiency was 85%; after the reactor was drained of sludge, the nitrification effect dropped sharply.

[6] = test system: activated sludge-biofilm composite system; assay: Activated sludge-biofilm composite MBBR reactor at 6° C., pollutant removal efficiency; details: 100 μg/L, HRT 18 h
[7] = test system: biofilm / quorum quenching bacteria; assay: Biofilm MBBR reactor at 22° C., microbial community structure; details: 100 μg/L
Description: The sludge was discharged on the 12th day after the biofilm was successfully formed on the filler. The C4-HSL with a concentration of 100 μg/L was added to the influent. The rest steps were the same as those in Example 5.
The high concentration of C4-HSL allowed the quorum quenching bacteria to grow at a suitable temperature (22±1° C.), stimulating quorum quenching and inhibiting the attachment and growth of microorganisms to the filler.

[8] = test system: activated sludge; assay: Activated sludge SBR reactor, biological nitrogen removal with added AHLs signal molecule; details: for MLSS lower than that of the control group (without C4-HSL added): 4° C.; for MLSS of the reactor lower than that of the control group (without C4-HSL): after stable operation
[9] = 40 μg/L, 6° C., after treatment effect stable
[10] = 100 μg/L, 6° C., after treatment effect stable
[11] = 100 μg/L, after raising influent in three stages
[12] = 100 μg/L, after reactor drained of sludge
[13] = room temperature, 0, 10, 100 μg/L, after 74 cycles

CCCC(=O)N[C@H]1CCOC1=O [C4-HSL, N-butanoyl-L-homoserine lactone]
abundance of CS gene (TCA cycle) ([1]; 10 μg/L, 10° C.): 0.017%
abundance of complete nitrifying bacterium Nitrospira ([1]; 10 μg/L, 10° C.): 0.100%
abundance of decomposition genes related to QS ([1]; 10 μg/L, 10° C.): 1.92%
abundance of denitrifying bacterium Dechloromonas ([1]; 10 μg/L, 10° C.): 0.246%
abundance of denitrifying bacterium Denitratisoma ([1]; 10 μg/L, 10° C.): 0.189%
abundance of fum gene (TCA cycle) ([1]; 10 μg/L, 10° C.): 0.018%
abundance of regulatory genes related to QS ([1]; 10 μg/L, 10° C.): 2.40%
abundance of sdh gene (TCA cycle) ([1]; 10 μg/L, 10° C.): 0.030%
abundance of transport genes related to QS ([1]; 10 μg/L, 10° C.): 7.75%
abundance of ammonia-oxidizing bacterium MND1 ([1]; 10 μg/L, 10° C. (Example 1)): 0.007%
share of complete nitrification process in nitrogen metabolism ([1]; 10 μg/L, 10° C., metagenomic): 12.53%
abundance of CS gene (TCA cycle) ([1]; 100 μg/L, 10° C.): 0.021%
abundance of Nitrospira ([1]; 100 μg/L, 10° C.): 0.222%
abundance of ammonia-oxidizing bacterium MND1 ([1]; 100 μg/L, 10° C.): 0.005%
abundance of decomposition genes related to QS ([1]; 100 μg/L, 10° C.): 2.50%
abundance of fum gene (TCA cycle) ([1]; 100 μg/L, 10° C.): 0.021%
abundance of heterotrophic nitrifying-aerobic denitrifying bacterium (Microbacterium) ([1]; 100 μg/L, 10° C.): 0.463%
abundance of mdh gene (TCA cycle) ([1]; 100 μg/L, 10° C.): 0.011%
abundance of nitrification gene nxr ([1]; 100 μg/L, 10° C.): 0.027%
abundance of nitrogen removal gene nirK ([1]; 100 μg/L, 10° C.): 0.015%
abundance of regulatory genes related to QS ([1]; 100 μg/L, 10° C.): 2.98%
abundance of sdh gene (TCA cycle) ([1]; 100 μg/L, 10° C.): 0.040%
abundance of transport genes related to QS ([1]; 100 μg/L, 10° C.): 9.22%
share of complete nitrification process in nitrogen metabolism ([1]; 100 μg/L, 10° C.): 13.82%
total abundance of 11 species of denitrifying bacteria ([1]; 100 μg/L, 10° C.): 16.53%
abundance of ammonia-oxidizing bacterium Ellin6067 ([1]; 100 μg/L, 10° C. (Example 2)): 0.393%
relative abundance of Arthrobacter, Nakamurella, Micrococcaceae and Nitrosomonas ([1]; 4° C., after system stable): promoted the increase
relative abundance of TM7a, Nakamurella, Tessaracoccus and Ferruginibacter ([1]; 7° C., after system stabilized): increased
effect on Actinobacteriota and Gemmatimonadota ([1]; room temperature): inhibition at low concentrations and promotion at high concentrations
relative content of Nakamurella (nitrifying bacteria) ([1]; room temperature, high-concentration C4-HSL): 20.79%
relative content of Nakamurella (nitrifying bacteria) ([1]; room temperature, low-concentration C4-HSL): 16.66%
growth and reproduction of Patescibacteria ([1]; room temperature, effect increased with concentration): promote
growth of Proteobacteria and Bacteroidota (phylum level) ([1]; room temperature, stronger at higher concentration): inhibited
EPS concentration in the biofilm phase [2, 9]: 53.34±3.7 mg/g. VSS
EPS concentration in the sludge phase [2, 9]: 46.12±4.8 mg/g·VSS
intracellular ATP (sludge phase) [2, 9]: 1273.11±5.4 ngATP/mL
microbial activity concentration of a single filler [2, 9]: 20.67±0.22 ngATP/piece
EPS concentration in the activated sludge phase ([2]; 40 μg/L, third stage influent): 127.07±4.5 mg/g·VSS
EPS concentration in the biofilm phase ([2]; 40 μg/L, third stage influent): 113.70±2.59 mg/g. VSS
intracellular ATP (sludge phase) ([2]; 40 μg/L, third stage influent): 1709.78±4.1 ngATP/mL
microbial activity concentration of a single filler ([2]; 40 μg/L, third stage influent): 113.99±0.67 ngATP/mL
EPS concentration in activated sludge phase [2, 10]: 80.62±3.1 mg/g·VSS
EPS concentration in biofilm phase [2, 10]: 96.74±2.8 mg/g·VSS
intracellular ATP (sludge phase) [2, 10]: 2441.01±7.2 ngATP/mL
microbial activity concentration of a single filler [2, 10]: 26.56±0.42 ngATP/piece
EPS concentration in activated sludge phase [2, 11]: 380.38±5.7 mg/g·VSS
EPS concentration in biofilm phase [2, 11]: 235.18±3.5 mg/g·VSS
intracellular ATP (sludge phase) [2, 11]: 5868.42±8.9 ngATP/mL
microbial activity concentration of a single filler [2, 11]: 113.99±0.67 ngATP/mL
average NH4+—N removal efficiency ([3]; 10 μg/L, 4° C. (Example 3)): 99.3%
MLSS lower than that of the control group (without C4-HSL added) ([3]; 10 μg/L, 7° C.): 22%
average NH4+—N removal efficiency ([3]; 10 μg/L, 7° C., after stabilization (Example 3)): 96.9%
MLSS lower than that of the control group (without C4-HSL added) ([3]; 100 μg/L, 7° C.): 19%
average NH4+—N removal efficiency ([3]; 100 μg/L, 7° C., after stabilization (Example 4)): 96.3%
ammonia-nitrogen removal efficiency ([4]; 40 μg/L, 6° C., 16th day): 71.86%
effluent ammonia-nitrogen concentration ([4]; 40 μg/L, 6° C., 16th day, influent 25 mg/L): 6.77 mg/L
ammonia-nitrogen concentration in the effluent ([4]; 40 μg/L, 6° C., 51st day): ~0
ammonia-nitrogen removal efficiency ([4]; 40 μg/L, 6° C., 51st day): greater than 99%
COD removal efficiency ([4]; 40 μg/L, 6° C., HRT 20 h): 85%
COD concentration in the reactor effluent ([4]; 40 μg/L, 6° C., HRT 20 h, influent COD 160 mg/L (Example 5)): below 50 mg/L
effluent COD concentration ([4]; 40 μg/L, 6° C., third stage influent COD 500, ammonia-nitrogen 75, TP 8.5 mg/L, 234th day): below 50 mg/L
TN removal efficiency ([4]; 40 μg/L, third stage influent): not less than 80%
effluent total nitrogen (TN) concentration ([4]; 40 μg/L, third stage influent): 12 mg/L
COD removal efficiency ([4]; 40 μg/L, third stage influent, 234th day): 95%
effluent ammonia-nitrogen removal efficiency ([4]; 100 μg/L, after raising influent in three stages (COD 500, ammonia-nitrogen 75, TP 8.5 mg/L)): not less than 99%
COD removal efficiency ([5]; 100 μg/L, HRT 18 h, sludge discharged on 18th day (Comparative Example 7)): 85%
ammonia-nitrogen removal efficiency [5, 12]: 40%
effluent ammonia-nitrogen concentration [5, 12]: 12 mg/L
growth and enrichment of Bacteroidetes and Actinobacteria on the filler ([5]; low temperature conditions): beneficial to promote the growth and enrichment
nitrification effect of a single biofilm system ([5]; low temperature, single biofilm system): could not quickly improve
ammonia-nitrogen removal efficiency ([6]; 5th day): 77.43%
effluent ammonia-nitrogen concentration ([6]; 5th day (Example 6)): 5.85 mg/L
ammonia-nitrogen removal efficiency ([6]; 12th day): greater than 99%
colonization and growth of biofilm ([7]; 22° C.): inhibited
growth of quorum quenching bacteria ([7]; 22° C. (Comparative Example 8)): promoted
COD removal efficiency ([8]; 10 μg/L added every 2 cycles, 10° C. (Example 1)): 90%
MLSS lower than that of the control group (without C4-HSL added) ([8]; 10 μg/L): 40%
TN average effluent concentration ([8]; 10 μg/L, 10° C. (Example 1)): 11.40 mg/L
average NH4+—N removal efficiency ([8]; 10 μg/L, 10° C. (Example 1)): 99.69%
cycles after which TN removal efficiency reached stability ([8]; 10 μg/L, 10° C. (Example 1)): 27 cycles
TN average removal efficiency ([8]; 10 μg/L, 10° C., after stability (Example 1)): 64.97%
MLSS of the reactor lower than that of the control group (without C4-HSL) ([8]; 10 μg/L, 10° C.): 2%
MLSS lower than that of the control group (without C4-HSL added) ([8]; 100 μg/L): 38%
average NH4+—N removal efficiency ([8]; 100 μg/L, 4° C. (Example 4)): 98.8%
TN average effluent concentration ([8]; 100 μg/L, 10° C.): 12.86 mg/L
cycles after which TN removal efficiency reached stability ([8]; 100 μg/L, 10° C.): 27 cycles
COD removal efficiency ([8]; 100 μg/L, 10° C. (Example 2)): 90%
average NH4+—N removal efficiency ([8]; 100 μg/L, 10° C. (Example 2)): 99.85%
TN average removal efficiency ([8]; 100 μg/L, 10° C., after stability): 60.46%
MLSS of the reactor lower than that of the control group (without C4-HSL) ([8]; 100 μg/L, 10° C.): 12%
TN removal efficiency and NH4+—N removal efficiency compared with not adding C4-HSL ([8]; low temperatures, Example 1 vs Comparative Example 1, FIG. 1 and 2): significantly improved
effect of adding C4-HSL on the nitrogen removal effect ([8]; room temperature): little effect
ammonia-nitrogen removal efficiency [8, 13]: not less than 99%
effluent TN [8, 13]: not more than 15 mg/L
effluent ammonia-nitrogen concentration [8, 13]: around 0.1 mg/L
removal efficiency of COD [8, 13]: not less than 90%

CCCCCC(=O)N[C@H]1CCOC1=O [C6-HSL, N-hexanoyl-L-homoserine lactone]
ammonia-nitrogen removal efficiency ([8]; 10 μg/L after addition, remaining steps as Example 1 (10° C.)): 82.34%
ammonia-nitrogen removal efficiency ([8]; 100 μg/L after addition, remaining steps as Example 1 (10° C.)): 84.29%
